Assay results taken from US4345938A, “Herbicidal 2-haloacetanilides” (Monsanto Company, priority 1980, dated 1982).

Experiments:
Format in all cases: in vivo
[1] = system: Upland seeded rice; assay: Upland seeded rice greenhouse test, rice safety
Experimental: (§1) In another comparative test in the greenhouse, the compound of Example 2 and Compound B were tested in Upland seeded rice. […] In contrast, Compound A, (a commercial rice herbicide), required 0.14 kg/ha (0.125 lb/A) to selectively control the same weed with rice safety also maintained at 1.12 kg/ha resulting in a selectivity factor of at least 8, i.e., less than one-half that of the compound of Example 2.

[2] = system: Echinochloa crus-galli; assay: Upland seeded rice greenhouse test, barnyardgrass; settings: for rate for selective control of Echinochloa crus-galli / selectivity factor, Echinochloa crus-galli in Upland seeded rice: Upland seeded rice, greenhouse
Experimental: as §1

[3] = system: Smartweed; assay: Pre-emergent herbicidal test, Smartweed; further: ranges in brackets are in %
Excerpt: (§2) A good grade of top soil is placed in aluminum pans and compacted to a depth of three-eights to one-half inch from the top of the pan. On the top of the soil is placed a number of seeds or vegetative propagules of various plant species. The soil required to level fill the pans after seeding or adding vegetative propagules is weighted into a pan. The soil and a known amount of the active ingredient applied in a solvent or as a wettable powder suspension are thoroughly mixed, and used to cover the prepared pans. After treatment, the pans are moved into a greenhouse bench where they are watered by subirrigation as needed to give adequate moisture for germination and growth.
(§3) Approximately 2 weeks after seeding and treating, the plants were observed and the results recorded. The herbicidal rating was obtained by means of a fixed scale based on the percent injury of each plant species. The ratings are defined as follows: […]

[4] = system: Panicum Spp.; assay: Pre-emergent herbicidal test, Panicum Spp.; further: ranges in brackets are in %; settings: Table II
Excerpt: as §2, §3
(§4) The compounds were further tested by utilizing the above procedure on the following plant species: […]

[5] = system: Johnsongrass; assay: Pre-emergent herbicidal test, Johnsongrass; settings: Table I; further: ranges in brackets are in %
Excerpt: as §2, §3

[6] = system: Sorghum; assay: Pre-emergent herbicidal test, Sorghum; settings: Table II; further: ranges in brackets are in %
Excerpt: as §2, §3, §4

[7] = system: Yellow Nutsedge; assay: Pre-emergent herbicidal test, Yellow Nutsedge; settings: Table I; further: ranges in brackets are in %
Excerpt: as §2, §3

[8] = system: Wild Buckwheat; assay: Pre-emergent herbicidal test, Wild Buckwheat; settings: Table II; further: ranges in brackets are in %
Excerpt: as §2, §3, §4

[9] = system: Soybean; assay: Pre-emergent herbicidal test, Soybean; settings: Table II; further: ranges in brackets are in %
Excerpt: as §2, §3, §4

[10] = system: Sugarbeet; assay: Pre-emergent herbicidal test, Sugarbeet; settings: Table II; further: ranges in brackets are in %
Excerpt: as §2, §3, §4

[11] = system: Wheat; assay: Pre-emergent herbicidal test, Wheat; settings: Table II; further: ranges in brackets are in %
Excerpt: as §2, §3, §4

[12] = system: Lambsquarters; assay: Pre-emergent herbicidal test, Lambsquarters; further: ranges in brackets are in %
Excerpt: as §2, §3

[13] = system: Morningglory; assay: Pre-emergent herbicidal test, Morningglory; further: ranges in brackets are in %
Excerpt: as §2, §3

[14] = system: Hemp Sesbania; assay: Pre-emergent herbicidal test, Hemp Sesbania; settings: Table II; further: ranges in brackets are in %
Excerpt: as §2, §3, §4

[15] = system: Barnyardgrass; assay: Pre-emergent herbicidal test, Barnyardgrass; further: ranges in brackets are in %
Excerpt: as §2, §3

[16] = system: Cocklebur; assay: Pre-emergent herbicidal test, Cocklebur; further: ranges in brackets are in %
Excerpt: as §2, §3

How did the “rate at which rice safety is maintained” value ([1]; Upland seeded rice, greenhouse, maximum test rate) turn out when `CCCCOCN(C(=O)CCl)c1c(CC)cccc1CC` [Compound A, 2',6'-diethyl-N-(n-butoxymethyl)-2-chloroacetanilide] was run?
The value was ≥ 1.12 kg/ha.

And the “rate for selective control of Echinochloa crus-galli” value [2]?
Its value is 0.14 kg/ha.

And the “selectivity factor, Echinochloa crus-galli in Upland seeded rice” value [2]?
The value was “at least 8”.

With `CCCCOc1cccc(CC)c1N(CC)C(=O)CCl` [Example 2, N-ethyl-2'-n-butoxy-6'-ethyl-2-chloroacetanilide] as the molecule, how does the “Rating, Smartweed” value ([3]; Table I, 5.6 kg/h) read?
The value was 3 (75-100).

And the “Rating, Smartweed” value ([3]; Table I, 11.2 kg/h)?
The value was 3 (75-100).

And the “Rating, Smartweed” value ([3]; Table II, 0.01 kg/h)?
Its value is 0 (0-24).

And the “Rating, Smartweed” value ([3]; Table II, 0.06 kg/h)?
Its value is 0 (0-24).

What about the “Rating, Smartweed” value ([3]; Table II, 0.28 kg/h) of the same molecule?
The value was 0 (0-24).

What about the “Rating, Smartweed” value ([3]; Table II, 1.12 kg/h) of the same molecule?
The value was 2 (50-74).

And the “Rating, Smartweed” value ([3]; Table II, 5.6 kg/h)?
The value was 3 (75-100).

And the “Rating, Panicum Spp.” value ([4]; 0.01 kg/h)?
The value was 0 (0-24).

And the “Rating, Panicum Spp.” value ([4]; 0.06 kg/h)?
Its value is 1 (25-49).

What about the “Rating, Panicum Spp.” value ([4]; 0.28 kg/h) of the same molecule?
Its value is 3 (75-100).

And the “Rating, Panicum Spp.” value ([4]; 1.12 kg/h)?
The value was 3 (75-100).

What about the “Rating, Panicum Spp.” value ([4]; 5.6 kg/h) of the same molecule?
The value was 3 (75-100).

And the “Rating, Johnsongrass” value ([5]; 5.6 kg/h)?
The value was 2 (50-74).

What about the “Rating, Johnsongrass” value ([5]; 11.2 kg/h) of the same molecule?
The value was 3 (75-100).

What about the “rate at which rice safety is maintained” value ([1]; in vivo) of the same molecule?
The value was ≥ 1.12 kg/ha.

What about the “Rating, Sorghum” value ([6]; 0.01 kg/h) of the same molecule?
Its value is 0 (0-24).

And the “Rating, Sorghum” value ([6]; 0.06 kg/h)?
Its value is 0 (0-24).

And the “Rating, Sorghum” value ([6]; 0.28 kg/h)?
The value was 1 (25-49).

And the “Rating, Sorghum” value ([6]; 1.12 kg/h)?
Its value is 3 (75-100).

And the “Rating, Sorghum” value ([6]; 5.6 kg/h)?
The value was 3 (75-100).

And the “Rating, Yellow Nutsedge” value ([7]; 5.6 kg/h)?
Its value is 3 (75-100).

And the “Rating, Yellow Nutsedge” value ([7]; 11.2 kg/h)?
Its value is 3 (75-100).

And the “Rating, Wild Buckwheat” value ([8]; 0.01 kg/h)?
Its value is 0 (0-24).

And the “Rating, Wild Buckwheat” value ([8]; 0.06 kg/h)?
Its value is 0 (0-24).

What about the “Rating, Wild Buckwheat” value ([8]; 0.28 kg/h) of the same molecule?
The value was 0 (0-24).

What about the “Rating, Wild Buckwheat” value ([8]; 1.12 kg/h) of the same molecule?
The value was 1 (25-49).

What about the “Rating, Wild Buckwheat” value ([8]; 5.6 kg/h) of the same molecule?
Its value is 2 (50-74).

And the “Rating, Soybean” value ([9]; 0.01 kg/h)?
The value was 0 (0-24).

What about the “Rating, Soybean” value ([9]; 0.06 kg/h) of the same molecule?
The value was 0 (0-24).

And the “Rating, Soybean” value ([9]; 0.28 kg/h)?
The value was 0 (0-24).

What about the “Rating, Soybean” value ([9]; 1.12 kg/h) of the same molecule?
Its value is 0 (0-24).

And the “Rating, Soybean” value ([9]; 5.6 kg/h)?
Its value is 1 (25-49).

What about the “Rating, Sugarbeet” value ([10]; 0.01 kg/h) of the same molecule?
The value was 0 (0-24).

And the “Rating, Sugarbeet” value ([10]; 0.06 kg/h)?
The value was 0 (0-24).

What about the “Rating, Sugarbeet” value ([10]; 0.28 kg/h) of the same molecule?
The value was 1 (25-49).

And the “Rating, Sugarbeet” value ([10]; 1.12 kg/h)?
Its value is 2 (50-74).

What about the “Rating, Sugarbeet” value ([10]; 5.6 kg/h) of the same molecule?
Its value is 2 (50-74).

And the “rate for selective control of Echinochloa crus-galli” value [2]?
The value was 0.064 kg/ha.

What about the “selectivity factor, Echinochloa crus-galli in Upland seeded rice” value [2] of the same molecule?
The value was “at least 17.5”.

What about the control of barnyardgrass ([2]; upland-seeded rice test, 0.0087 kg/ha (0.0078 lb/A)) of the same molecule?
Its control of barnyardgrass is 20%.

And the “Rating, Wheat” value ([11]; 0.01 kg/h)?
Its value is 0 (0-24).

What about the “Rating, Wheat” value ([11]; 0.06 kg/h) of the same molecule?
The value was 0 (0-24).

What about the “Rating, Wheat” value ([11]; 0.28 kg/h) of the same molecule?
Its value is 1 (25-49).

What about the “Rating, Wheat” value ([11]; 1.12 kg/h) of the same molecule?
Its value is 2 (50-74).

And the “Rating, Wheat” value ([11]; 5.6 kg/h)?
Its value is 3 (75-100).

What about the “Rating, Lambsquarters” value ([12]; Table I, 5.6 kg/h) of the same molecule?
The value was 3 (75-100).

What about the “Rating, Lambsquarters” value ([12]; Table I, 11.2 kg/h) of the same molecule?
Its value is 3 (75-100).

What about the “Rating, Lambsquarters” value ([12]; Table II, 0.01 kg/h) of the same molecule?
Its value is 0 (0-24).

And the “Rating, Lambsquarters” value ([12]; Table II, 0.06 kg/h)?
The value was 0 (0-24).

And the “Rating, Lambsquarters” value ([12]; Table II, 0.28 kg/h)?
Its value is 0 (0-24).

And the “Rating, Lambsquarters” value ([12]; Table II, 1.12 kg/h)?
Its value is 2 (50-74).

And the “Rating, Lambsquarters” value ([12]; Table II, 5.6 kg/h)?
The value was 3 (75-100).

And the “Rating, Morningglory” value ([13]; Table I, 5.6 kg/h)?
Its value is 0 (0-24).

What about the “Rating, Morningglory” value ([13]; Table I, 11.2 kg/h) of the same molecule?
The value was 2 (50-74).

And the “Rating, Morningglory” value ([13]; Table II, 0.01 kg/h)?
Its value is 0 (0-24).

What about the “Rating, Morningglory” value ([13]; Table II, 0.06 kg/h) of the same molecule?
The value was 0 (0-24).

What about the “Rating, Morningglory” value ([13]; Table II, 0.28 kg/h) of the same molecule?
Its value is 0 (0-24).

And the “Rating, Morningglory” value ([13]; Table II, 1.12 kg/h)?
The value was 0 (0-24).

What about the “Rating, Morningglory” value ([13]; Table II, 5.6 kg/h) of the same molecule?
The value was 1 (25-49).

And the “Rating, Hemp Sesbania” value ([14]; 0.01 kg/h)?
Its value is 0 (0-24).

What about the “Rating, Hemp Sesbania” value ([14]; 0.06 kg/h) of the same molecule?
Its value is 0 (0-24).

And the “Rating, Hemp Sesbania” value ([14]; 0.28 kg/h)?
Its value is 0 (0-24).

And the “Rating, Hemp Sesbania” value ([14]; 1.12 kg/h)?
The value was 2 (50-74).

And the “Rating, Hemp Sesbania” value ([14]; 5.6 kg/h)?
The value was 2 (50-74).

What about the “Rating, Barnyardgrass” value ([15]; Table I, 5.6 kg/h) of the same molecule?
Its value is 3 (75-100).

What about the “Rating, Barnyardgrass” value ([15]; Table I, 11.2 kg/h) of the same molecule?
Its value is 3 (75-100).

What about the “Rating, Barnyardgrass” value ([15]; Table II, 0.01 kg/h) of the same molecule?
The value was 1 (25-49).

What about the “Rating, Barnyardgrass” value ([15]; Table II, 0.06 kg/h) of the same molecule?
Its value is 3 (75-100).

What about the “Rating, Barnyardgrass” value ([15]; Table II, 0.28 kg/h) of the same molecule?
Its value is 3 (75-100).

And the “Rating, Barnyardgrass” value ([15]; Table II, 1.12 kg/h)?
Its value is 3 (75-100).

What about the “Rating, Barnyardgrass” value ([15]; Table II, 5.6 kg/h) of the same molecule?
Its value is 3 (75-100).

And the “Rating, Cocklebur” value ([16]; Table I, 5.6 kg/h)?
Its value is 0 (0-24).

And the “Rating, Cocklebur” value ([16]; Table I, 11.2 kg/h)?
Its value is 0 (0-24).

What about the “Rating, Cocklebur” value ([16]; Table II, 0.01 kg/h) of the same molecule?
The value was 0 (0-24).

And the “Rating, Cocklebur” value ([16]; Table II, 0.06 kg/h)?
The value was 0 (0-24).

And the “Rating, Cocklebur” value ([16]; Table II, 0.28 kg/h)?
The value was 0 (0-24).

And the “Rating, Cocklebur” value ([16]; Table II, 1.12 kg/h)?
Its value is 0 (0-24).

And the “Rating, Cocklebur” value ([16]; Table II, 5.6 kg/h)?
The value was 1 (25-49).
